Test results published in patent US9193697B2, “Oxazole derivatives useful as modulators of FAAH” (MERCK SHARP & DOHME CORP., priority 2010, dated 2015).

Each compound was assayed against human FAAH (Fatty Acid Amide Hydrolase) (Homo sapiens (Human), UniProt O00519) (assay: FAAH inhibition, human FAAH CHO whole cell format).
Format: cell-based
Excerpt: To assist in assay development stable cell lines for human, murine and rat full length FAAH were developed. […] The full length FAAH was subcloned into the mammalian expression vector, pcDEF.neo, using XbaI and EcoRI restriction sites and used for stable cell line generation.
The full length murine FAAH was subcloned into the mammalian expression vector, pcDEFneo using either EcoRI (murine) or KpnI and EcoRI (rat) restriction sites. Chinese hamster ovary cells (CHO) were transfected following manufacturers protocol (AMAXA). Forty eight hours post transfection, cells were trypsinized and transferred to 96 well plates in Iscove's DMEM media supplemented with 2 mM Glutamine, 10% fetal calf serum, 1 mg/ml geneticin and HT Supplement (0.1 mM sodium hypoxanthine, 0.016 mM thymidine) in order to isolate single clones. […] Following removal of tissue culture media cells were dislodged following addition of Cellstripper (Mediatech, Inc. Manassas, Va.) and transferred to 96 well black clear bottom assay plate, centrifuged at 1,000 rpm for 3 mins and media removed and replaced with assay buffer (50 mM Tris pH8.0, 1 mM EDTA, 0.1% fatty acid free BSA). The reaction was initiated by addition of fluorescent substrate, AMC Arachidonoyl Amide (Cayman Chemical, Ann Arbor, Mich.) to 1 μM and reaction allowed to proceed for 2 hours at room temperature. Release of fluorescence was monitored in a CytoFluor Multiplate Reader.
Assays are performed on either cell lysate or microsome fractions prepared as described or in whole cell format employing either the fluorescent substrate AAMCA (Cayman chemical, Ann Arbor, Mich.,) or ^3H-anandamide ([ETHANOLAMINE-1-3H] American Radiolabeled Chemicals; 1 mCi/ml). […] AAMCA substrate was used to achieve a final concentration of 1 μM and reaction allowed to proceed at room temperature for 1-3 hours. […] Whole cell assay is conducted with cells harvested after rinsing tissue culture flasks three times with Ca^++Mg^++ free PBS, incubating for 10 min in Enzyme free dissociation media and centrifuging for 5 minutes at 1,000 rpm in table top centrifuge. Cells are resuspended in assay buffer at desired cell number in (4×10^4 cells/assay in 96-well format; 1×10^4 cells/assay in 384-well format) and assayed as described.

human FAAH (Fatty Acid Amide Hydrolase), sequence (O00519 whole entry): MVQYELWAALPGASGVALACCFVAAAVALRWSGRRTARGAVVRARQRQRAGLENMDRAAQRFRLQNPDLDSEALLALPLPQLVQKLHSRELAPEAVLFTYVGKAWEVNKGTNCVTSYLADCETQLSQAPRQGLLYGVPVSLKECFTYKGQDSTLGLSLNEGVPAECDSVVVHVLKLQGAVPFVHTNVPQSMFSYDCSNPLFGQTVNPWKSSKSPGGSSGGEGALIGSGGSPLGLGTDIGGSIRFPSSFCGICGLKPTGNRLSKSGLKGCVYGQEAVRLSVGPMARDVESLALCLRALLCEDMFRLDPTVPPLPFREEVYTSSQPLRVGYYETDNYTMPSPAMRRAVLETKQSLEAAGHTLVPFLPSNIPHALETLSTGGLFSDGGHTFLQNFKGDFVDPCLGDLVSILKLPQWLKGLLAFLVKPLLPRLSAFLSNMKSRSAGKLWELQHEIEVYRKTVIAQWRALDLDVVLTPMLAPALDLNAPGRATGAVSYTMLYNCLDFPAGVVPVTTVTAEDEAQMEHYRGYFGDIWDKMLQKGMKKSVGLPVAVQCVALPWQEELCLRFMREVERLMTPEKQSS

| Compound | IC50 [µM] |
| --- | --- |
| CC(C)(O)c1ccc(-c2nc(C3CCOCC3)oc2Oc2ccc(Cl)cc2)cn1 [Example A7.12, 2-{5-[5-(4-chlorophenoxy)-2-(tetrahydro-2H-pyran-4-yl)-1,3-oxazol-4-yl]pyridin-2-yl}propan2-ol] | 0.29 |
| CC(C)(O)c1ccc(-c2nc(C3CCOCC3)oc2Cc2ccc(Cl)cc2)cn1 [Example A7.11, 2-{5-[5-(4-chlorobenzyl)-2-(tetrahydro-2H-pyran-4-yl)-1,3-oxazol-4-yl]pyridin-2-yl}propan-2-ol] | 0.701 |
| COCCOC(=O)N1CCC(c2nc(C3CCOCC3)oc2Sc2ccc(Cl)cn2)CC1 [Example A7.38] | ≥ 10 |
| CN(C(=O)c1ccc(-c2nc(C3CCOCC3)oc2Sc2ccc(Cl)cc2)cc1)C1CCOC1 (stereo not shown) [Example B5.26, 4-{5-[(4-chlorophenyl)sulfanyl]-2-(tetrahydro-2H-pyran-4-yl)-1,3-oxazol-4-yl}-N-methyl-N-(tetrahydrofuran-3-yl)benzamide] | 0.506 |
| CC(C)OC(=O)N1CCC(c2nc(C3CCOCC3)oc2Sc2ccc(Cl)cn2)CC1 [Example A7.37, propan-2-yl 4-{5-[(5-chloropyridin-2-yl)sulfanyl]-2-(tetrahydro-2H-pyran-4-yl)-1,3-oxazol-4-yl}piperidine-1-carboxylate] | 1.92 |
| CC(C)COC(=O)N1CCC(c2nc(C3CCOCC3)oc2Sc2ccc(Cl)cn2)CC1 [Example A7.36, 2-methylpropyl 4-{5-[(5-chloropyridin-2-yl)sulfanyl]-2-(tetrahydro-2H-pyran-4-yl)-1,3-oxazol-4-yl}piperidine-1-carboxylate] | ≥ 10 |
| O=C(c1ccc(-c2nc(C3CCOCC3)oc2Sc2ccc(Cl)cc2)cc1)N1CCSC1 [Example B5.31, (4-{5-{(4-chlorophenyl)sulfanyl]-2-(tetrahydro-2H-pyran-4-yl)-1,3-oxazol-4-yl}phenyl)(1,3-thiazolidin-3-yl)methanone] | 1.34 |
| CC(C)(O)c1ccc(-c2nc([C@H]3CC[C@@H](CO)CC3)oc2Sc2ccc(Cl)cc2)cn1 [Example B5.36, 2-(5-{5-[(4-chlorophenyl)sulfanyl]-2-[cis-4-(hydroxymethyl)cyclohexyl]-1,3-oxazol-4-yl}pyridin-2-yl)propan-2-ol] | 0.0638 |
| C[N+]1(C)CCN(c2ccc(-c3nc(C4CCOCC4)oc3Sc3ccc(Cl)cc3)cn2)CC1 [Example B5.14, 4-(5-{5-[(4-chlorophenyl)sulfanyl]-2-(tetrahydro-2H-pyran-4-yl)-1,3-oxazol-4-yl}pyridin-2-yl)-1,1-dimethylpiperazin-1-ium] | ≥ 10 |
| CC(C)(O)c1ccc(-c2nc([C@H]3CC[C@H](CO)CC3)oc2Sc2ccc(Cl)cc2)cn1 [Example B5.35, 2-(5-{5-[(4-chlorophenyl)sulfanyl]-2-[trans-4-(hydroxymethyl)cyclohexyl]-1,3-oxazol-4-yl}pyridin-2-yl)propan-2-ol] | 0.00907 |
| CC(C)(O)c1ccc(-c2nc(C3CCOCC3)oc2Sc2cccc(Cl)c2)cn1 [Example A7.9, 2-(5-{5-[(3-chlorophenyl)sulfanyl]-2-(tetrahydro-2H-pyran-4-yl)-1,3-oxazol-4-yl}pyridin-2-yl)propan-2-ol] | ≥ 10 |
| O=S1(=O)CCN(c2ccc(-c3nc(C4CCOCC4)oc3Sc3ccc(Cl)cc3)cc2)CC1 [Example B5.22, 4-(4-{5-[(4-chlorophenyl)sulfanyl]-2-(tetrahydro-2H-pyran-4-yl)-1,3-oxazol-4-yl}phenyl)thiomorpholine 1,1-dioxide] | 0.0403 |
| COC(=O)[C@H]1CC[C@@H](c2nc(-c3ccc(C(C)(C)O)nc3)c(Sc3ccc(Cl)cc3)o2)CC1 [Example B5.34, methyl cis-4-{5-[(4-chlorophenyl)sulfanyl]-4-[6-(2-hydroxypropan-2-yl)pyridin-3-yl]-1,3-oxazol-2-yl}cyclohexanecarboxylate] | 0.0142 |
| CC(O)(CO)c1ccc(-c2nc(C3CCOCC3)oc2Sc2ccc(Cl)cc2)cn1 (stereo not shown) [Example B5.37, 2-(5-{5-[(4-chlorophenyl)sulfanyl]-2-(tetrahydro-2H-pyran-4-yl)-1,3-oxazol-4-yl}pyridin-2-yl)propane-1,2-diol] | 0.308 |
| COC(=O)[C@H]1CC[C@H](c2nc(-c3ccc(C(C)(C)O)nc3)c(Sc3ccc(Cl)cc3)o2)CC1 [Example B5.33, methyl trans-4-{5-[(4-chlorophenyl)sulfanyl]-4-[6-(2-hydroxypropan-2-yl)pyridin-3-yl]-1,3-oxazol-2-yl}cyclohexanecarboxylate] | 0.0095 |
| CC(=O)N1CCC(c2nc(C3CCOCC3)oc2Sc2ccc(Cl)cn2)CC1 [Example A7.33, 1-(4-{5-[(5-chloropyridin-2-yl)sulfanyl]-2-(tetrahydro-2H-pyran-4-yl)-1,3-oxazol-4-yl}piperidin-1-yl)ethanone] | 1.81 |
| CN1CCN(CCOC(=O)N2CCC(c3nc(-c4ccc([S+](C)[O-])cc4)c(Sc4ccc(Cl)cn4)o3)CC2)CC1 (stereo not shown) [Example A7.28, 2-(4-methylpiperazin-1-yl)ethyl 4-{5-[(5-chloropyridin-2-yl)sulfanyl]-4-[4-(methylsulfinyl)phenyl]-1,3-oxazol-2-yl}piperidine-1-carboxylate] | ≥ 10 |
| CC(C)(O)c1ccc(-c2nc(C3CCOCC3)oc2Sc2ccc(C3CC3)cn2)cn1 [Example A7.6, 2-(5-{5-{(5-cyclopropylpyridin-2-yl)sulfanyl]-2-(tetrahydro-2H-pyran-4-yl)-1,3-oxazol-4-yl}pyridin-2-yl)propan-2-ol] | 4.14 |
| Clc1ccc(Sc2oc(C3CCOCC3)nc2-c2ccc(N3CCNCC3)cc2)cc1 [Example B5.21, 1-(4-{5-[(4-chlorophenyl)sulfanyl]-2-(tetrahydro-2H-pyran-4-yl)-1,3-oxazol-4-yl}phenyl)piperazine] | 0.707 |
| CC(c1ccc(-c2nc(C3CCOCC3)oc2Sc2ccc(Cl)cc2)cc1)N1CCOCC1 (stereo not shown) [Example B5.17, 4-[1-(4-{5-[(4-chlorophenyl)sulfanyl]-2-(tetrahydro-2H-pyran-4-yl)-1,3-oxazol-4-yl}phenyl)ethyl]morpholine] | 1.53 |
| CC(C)(O)c1ccc(-c2nc(C3CCOCC3)oc2Sc2ccc(F)cn2)cn1 [Example A7.5, 2-(5-{5-[(5-fluoropyridin-2-yl)sulfanyl]-2-(tetrahydro-2H-pyran-4-yl)-1,3-oxazol-4-yl}pyridin-2-yl)propan-2-ol] | 4.25 |
| CC(C)(O)c1ccc(-c2nc(C3CCOCC3)oc2Sc2ncc(Cl)cn2)cn1 [Example A7.3, 2-(5-{5-[(5-chloropyrimidin-2-yl)sulfanyl]-2-(tetrahydro-2H-pyran-4-yl)-1,3-oxazol-4-yl}pyridin-2-yl)propan-2-ol] | 0.852 |
| Clc1ccc(Sc2oc(C3CCOCC3)nc2-c2ccc3nncn3c2)cc1 [Example B5.23, 6-{5-[(4-chlorophenyl)sulfanyl]-2-(tetrahydro-2H-pyran-4-yl)-1,3-oxazol-4-yl}[1,2,4]triazolo[4,3-a]pyridine] | 0.774 |
| CC(C)(O)c1ccc(-c2nc([C@H]3CC[C@H](C(C)(C)O)CC3)oc2Sc2ccc(Cl)cc2)cn1 [Example B5.38, 2-(5-{5-[(4-chlorophenyl)sulfanyl]-2-[trans-4-(2-hydroxypropan-2-yl)cyclohexyl]-1,3-oxazol-4-yl}pyridin-2-yl)propan-2-ol] | 0.185 |
| O=C(c1ccc(-c2nc(C3CCOCC3)oc2Sc2ccc(Cl)cc2)cn1)N1CCOCC1 [Example B5.24, (5-{5-[(4-chlorophenyl)sulfanyl]-2-(tetrahydro-2H-pyran-4-yl)-1,3-oxazol-4-yl}pyridin-2-yl)(morpholin-4-yl)methanone] | ≥ 10 |
